The source of these data is US10239844B2, “Disubstituted triazole analogs” (BioVentures, LLC, priority 2014, dated 2019).

The test system of data set [1] is GFP expressing leukemia cells. Put plainly: In vivo anti-leukemic activity, GFP expressing leukemia cells injected into mice. As to conditions: 3.5 mg/kg. The procedure: The anti-leukemic activity of Compound 8 (FIG. 1) was evaluated in vivo. GFP expressing leukemia cells were injected into mice. One week post injection, mice were treated with Compound 8 at 3.5 mg/kg or DMSO (control) (FIG. 11A). Mice were imaged one week later. […] Further, bone marrow was isolated and the percent of GFP expressing AML stem cells was quantitated.

In data set [2] the test system is Hs578T cells. Put plainly: Hs578T cell viability, Calcein-AM fluorescence, 48 hours. It counts as cell-based. The note with it: Homo sapiens, Hs-578T. How it is done:
Some of these compounds were also screened against breast cancer cell line Hs578T. Briefly, Hs578T cells were seeded at 3,000 cells per well into 96-well plates and incubated overnight at 37° C. in DMEM (Dulbecco's Modified Eagle's Medium) containing 10% FBS (Fetal Bovine Serum) medium. The following day, various concentrations of combretastin analogs, or vehicle, were added to each plate and the plates were then incubated for 48 hours. Then, cells were washed twice with Dulbecco's Phosphate-Buffered Saline (DPBS) pH 7.4 and incubated with 2 μM Calcein-AM for 30 minutes at 25° C. Fluorescence was measured using a 490 nm excitation filter and a 520 nm emission filter. The fluorescence intensity is proportional to the number of viable cells. The fluorescence intensity of control (untreated) cells was taken as 100% viability. The relative cell viability compared to control was calculated by using the following formula: Cell viability (%)=Fluorescence intensity of treated cells/Fluorescence intensity of untreated cells×100.
The GI50 values (growth inhibition; anti-proliferation) were calculated using GraphPad prism (San Diego, Calif.) by plotting the percent cell viability as a function of the compound concentration and fit to a four-parameter logistic model. The data represents mean±standard deviation of three independent experiments.

Molecules are shown by their SMILES.

On to `COc1cc(-c2n[nH]nc2-c2ccc3c(c2)OCO3)cc(OC)c1OC` [Compound 8, 4-(benzo[d][1,3]dioxol-5-yl)-5-(3,4,5-trimethoxyphenyl)-2H-1,2,3-triazole], for which the “tumor shrinkage, imaging of GFP expressing cells (FIG. 11C)” value in data set [1] (imaged one week after treatment, relative to DMSO and untreated mice) is “significant tumor shrinkage”. Besides, the “percent of GFP expressing AML stem cells in bone marrow (FIG. 10)” value in data set [1] (isolated bone marrow) is “significant reduction in AML stem cells”. Further, the “average radiance (FIG. 11B)” value in data set [1] (versus DMSO control) is on record as “significant reduction in leukemia cells”.
`COc1cc(-c2n[nH]nc2-c2cc3ccccc3s2)cc(OC)c1OC` [PNR-7-74, 4-(benzo[b]thiophen-2-yl)-5-(3,4,5-trimethoxyphenyl)-2H-1,2,3-triazole]: the melting point lay within 189 to 191 °C. The concentration for 50% growth inhibition (GI50) in data set [2] is 10.3 nM.
The like results for `COc1cc(-c2n[nH]nc2-c2cc3ccccc3o2)cc(OC)c1OC` [PNR-7-81, 4-(benzofuran-2-yl)-5-(3,4,5-trimethoxyphenyl)-2H-1,2,3-triazole] were, in that order, 158 to 160 °C and 20.3 nM.
As for `COc1cc(OC)cc(-c2n[nH]nc2-c2cc3ccccc3s2)c1` [PNR-7-83, 4-(benzo[b]thiophen-2-yl)-5-(3,5-dimethoxyphenyl)-2H-1,2,3-triazole], the concentration for 50% growth inhibition (GI50) in data set [2] is 66.5 nM.

A word on the GI50: it is the concentration that inhibits growth by half. What is called melting point is the temperature of the solid-liquid transition.
